Several values for one entry are separate records, joined by “and”; a condition that tells them apart may be missing. Equal values may be shown once. Read-outs that look alike come from different tables or passages of the source.
System: Influenza A/Duck/MN/1525/81 (H5N1) virus
Parameters: species or system BALB/c mice
Conditions: mouse, in vivo

Compound: CCOC(=O)C1=C[C@@H](OC(CC)CC)[C@H](NC(C)=O)[C@@H](N)C1 [oseltamivir]
- mean day of death (MDD): 9.0 ± 0.0 days and 11.4 ± 1.8 days
- mice survived to day 21: 8 out of 10
- survival rate: 70%

Compound: CC#CCC(C)[C@H](O)/C=C/[C@@H]1[C@H]2c3cccc(CCCC(=O)[O-])c3O[C@H]2C[C@H]1O.[Na+] (mixture of isomers) [beraprost, (+)-[1R,2R,3aS,8bS]-2,3,3a,8b-tetrahydro-2-hydroxyl-1-[(E)-(3S,4RS)-3-hydroxyl-4-methyl-1-octen-6-ynyl)-1H-cyclopenta[b]benzofuran-5-butanoic acid, sodium salt]
- mice survived to day 21: 6 of 10
- survival rate: 50%
- mean day of death (MDD) (sodium salt): 9.0 ± 3.9 days and 8.0 ± 2.0 days

Source: patent publication US20150196578A1, “COMBINATION THERAPY TREATMENT FOR VIRAL INFECTIONS” (priority 2009, published 2015)
